Assay results: patent US20240408119A1, “DELIVERY OF THERAPEUTIC ALKALOID COMPOUNDS” (priority 2022, published 2024)
Where two headings read alike, the source gives them in different places.

Tests used:
[1] = in vivo; cited from earlier work
in vivo [2] = type: in vivo, mouse; details: 001 (metabolite) in brain after 321 IV 2 mg/kg
Experimental: Total fifteen male mice were used in this study with n=3 mice/time point with sparse sampling study design. Animals were administered through intravenous route with solution formulation of 321 at 2 mg/kg dose.
(§1) The extraction procedure for plasma/brain samples and the spiked plasma/brain calibration standards were identical (PMSF Stabilized Plasma and Brain used for Preparation of calibration standards): A 20 μL of study sample plasma/brain or spiked plasma/brain calibration standard was added to individual pre-labeled micro-centrifuge tubes followed by 200 μL of internal standard prepared in acetonitrile (Rosuvastatin, 50 ng/mL) was added except for blank, where 200 μL of acetonitrile was added. Samples were vortexed for 5 minutes. Samples were centrifuged for 10 minutes at a speed of 4000 rpm at 4° C. Following centrifugation, 200 μL of clear supernatant was transferred in 96 well plates and analyzed using LC-MS/MS.
(§2) Brain samples were diluted (1-part of tissue: 2-part of buffer) and homogenized. The homogenate was submitted for bioanalysis and the concentrations (ng/mL) received were corrected with dilution factor (3×) and the final reported concentrations were represented in ng/g.
The plasma and brain concentration-time data of 321 and 001 were used for the pharmacokinetic analysis.
LLOQ: 321: 1.02 ng/mL for plasma and brain 001: 1.01 ng/mL for plasma and brain

[3] = Metabolic Stability in Human Hepatocytes; type: in vitro ADME; details: cryopreserved human hepatocytes, 37° C.
Experimental: A 2.5 uL aliquot of 100 μM test compound was incubated with 247.5 uL of cryopreserved hepatocytes suspended in serum-free incubation medium at 5×10^5 viable cells/mL. The mixture was incubated at 37° C. and shaken at 500 rpm for the designated time points (0.5, 15, 30, 60, 90, or 120 min). At each time point, 25 μL aliquot of incubation mixture was transferred to 125 μL of cold acetonitrile containing internal standard, followed by centrifugation for 30 min at 3,220 g. 100 μL of supernatant was mixed with 100 μL of distilled water for analysis by LC-MS/MS. Peak areas were determined from extracted ion chromatograms and in vitro half-life (t1/2) was determined from the concentration vs time regression slope, in vitro t1/2=0.693/k. Conversion of the in vitro t1/2 (in min) into the in vitro intrinsic clearance (in vitro CLint, in μL/min/10^6 cells) is done using: in vitro CLint=kV/N.

[4] = Pharmacokinetics of 358, single IV in male C57BL/6 mice; type: in vivo, mouse
Experimental: Total fifteen male mice were used in this study with n=3 mice/time point with sparse sampling study design. Animals were administered through intravenous route with solution formulation of 358 at 2 mg/kg dose.
The extraction procedure for plasma/brain samples and the spiked plasma/brain calibration standards were identical (PMSF Stabilized Plasma and Brain used for Preparation of calibration standards):
as §1, with “A” for “The extraction procedure for plasma/brain samples and the spiked plasma/brain calibration standards were identical (PMSF Stabilized Plasma and Brain used for Preparation of calibration standards): A”, “(Rosuvastatin+Cetrizine,” for “(Rosuvastatin,”
Note: Brain samples were diluted (1-part of tissue: 2-part of buffer) and homogenized. The homogenate was submitted for bioanalysis and the concentrations (ng/mL) received were corrected with dilution factor (3×) and the final reported concentrations were represented in ng/g.
The plasma and brain concentration-time data of 358 and 001 were used for the pharmacokinetic analysis.
LLOQ: 358: 1.02 ng/mL for plasma and brain 001: 1.01 ng/mL for plasma and brain

in vivo [5] = type: in vivo, mouse; details: 001 (metabolite) in brain after 323 IV 2 mg/kg
Experimental: Total fifteen male mice were used in this study with n=3 mice/time point with sparse sampling study design. Animals were administered through intravenous route with solution formulation of 323 at 2 mg/kg dose.
as §1, with “(Rosuvastatin+Cetrizine,” for “(Rosuvastatin,”
as §2
The plasma and brain concentration-time data of 323 and 001 were used for the pharmacokinetic analysis.
LLOQ: 323: 1.02 ng/mL for plasma and brain 001: 1.01 ng/mL for plasma and brain

[6] = fermentation, exposure to light, exposure to heat, aqueous medium; cited from earlier work
[7] = Hydrolysis Assay - Condition 2 (DI Water); type: physicochemical; details: 25° C., 0.5 mM
Experimental: 50 μL of compound (10 mM) in DMSO was diluted into 950 μL of DI water to a final concentration of 0.5 mM. The hydrolysis kinetics were conducted at 25° C. and measured by LCMS at a certain time interval.
(§3) The corresponding LCMS chromatogram were recorded and the conversions were calculated by integration of each peak.
(§4) • 1) LCMS spectra were obtained using Agilent 1200G1956A or SHIMADZU LCMS-2020. Standard LCMS conditions were as follows (running time 1.55 minutes): • Acidic condition: Mobile Phase A: 0.0375% TFA in water (v/v). Mobile Phase B: 0.01875% TFA in acetonitrile (v/v); Column: Kinetex EVO C18 30*2.1 mm, 5 μm. • Basic condition: Mobile Phase A: 0.025% NH3·H2O in water (v/v). Mobile Phase B: Acetonitrile; Column: Kinetex EVO C18 2.1×30 mm, 5 μm. • 2) Conversion (%)=peak area 1/(peak area 1+peak area 2)*100%, peak area 1 is the integration of hydrolyzed product, peak area 2 is the integration of starting material.

[8] = type: in vitro ADME, human; details: prodrug remaining, 5 μM, 37° C.
Experimental: (§5) Each test was carried out in duplicate for each time point; 0 min, 15 min, 30 min, 60 min, 120, 240 min. […]

[9] = type: in vitro ADME, mouse; details: prodrug remaining, 5 μM, 37° C.
Experimental: as §5

[10] = Hydrolysis Assay - Condition 1 (SGF); type: physicochemical; details: SGF with pepsin pH 1.5, 37° C., 0.5 mM
Experimental: 50 μL of compound (10 mM) in DMSO was diluted into 950 μL of Simulated Gastric Fluid (SGF) with pepsin (pH 1.5) to a final concentration of 0.5 mM. The hydrolysis kinetics were conducted at 37° C. and measured by LCMS at a certain time interval.
as §3, §4

## COc1ccc([C@@]23CCC(=O)C[C@@H]2N(C)CC3)cc1OC (racemic) [Compound 001, (3aS,7aS)-3a-(3,4-dimethoxyphenyl)-1-methyl-2,3,4,5,7,7a-hexahydroindol-6-one, reference compound]
[1]
  half-life in plasma: less than 2 hours
In vivo [2]
  AUClast: 12.72 ng·h/g
[3]
  half-life: 17 min
  hepatocyte CLint: 40 µL/min/1e6 cells
[4]; 001 (metabolite) in brain after 358 IV 2 mg/kg
  AUClast: 190.88 ng·h/g
In vivo [5]
  AUClast: 411.95 ng·h/g

## COc1ccc([C@@]23CCC(=O)C[C@@H]2N(C)CC3)cc1OC [Mesembrine, 3a-(3,4-dimethoxyphenyl)-octahydro-1-methyl-6H-indol-6-one]
[6]
  stability: unstable

## COc1ccc([C@@]23CCC(OC(=O)OC(C)(C)C)=C[C@@H]2N(C)CC3)cc1OC [Compound 358, [(3aS,7aS)-3a-(3,4-dimethoxyphenyl)-1-methyl-3,4,5,7a-tetrahydro-2H-indol-6-yl] tert-butyl carbonate]
[7]; 1 min
  Condition 2 Conversion (%): 0%
[7]; 5 min
  Condition 2 Conversion (%): 0%
[7]; 30 min
  Condition 2 Conversion (%): 0%
[7]; 1 h
  Condition 2 Conversion (%): 0%
[7]; 4 h
  Condition 2 Conversion (%): 83.46%
[7]; 24 h
  Condition 2 Conversion (%): 100%
[4]; 358 after 358 IV 2 mg/kg
  brain concentrations quantifiable up to: ≤ 0.08 h
[4]; male, C57BL/6, mouse, brain, 358 after 358 IV 2 mg/kg, read-out: Brain concentrations (mean)
  concentration at 0.08 h: 18.3 ng/g
[4]; male, C57BL/6, mouse, in vivo, iv, 2 mg/kg
  plasma concentrations quantifiable up to: up to 0.25 h
[4]; male, C57BL/6, mouse, plasma, 358 after 358 IV 2 mg/kg, read-out: Plasma concentrations (mean)
  concentration at 0.08 h: 14.3 ng/mL
[4]; male, C57BL/6, mouse, plasma, 358 after 358 IV 2 mg/kg, 0.25 h, average of two values, read-out: Plasma concentrations (mean)
  concentration at 0.25 h: 1.51 ng/mL
[8]; 0 min
  Human Plasma Prodrug (%): 100%
[8]; 15 min
  Human Plasma Prodrug (%): 75.4%
[8]; 30 min
  Human Plasma Prodrug (%): 58.1%
[8]; 60 min
  Human Plasma Prodrug (%): 35.5%
[8]; 120 min
  Human Plasma Prodrug (%): 11.7%
[8]; 240 min
  Human Plasma Prodrug (%): 0.7%
[9]; 0 min
  Mouse Plasma Prodrug (%): 100%
[9]; 15 min
  Mouse Plasma Prodrug (%): 14.8%
[9]; 30 min
  Mouse Plasma Prodrug (%): 10.3%
[9]; 60 min
  Mouse Plasma Prodrug (%): 5.4%
[9]; 120 min
  Mouse Plasma Prodrug (%): 0.0%
[9]; 240 min
  Mouse Plasma Prodrug (%): 0.0%
[10]; 1 min
  Condition 1 Conversion (%): 0%
[10]; 5 min
  Condition 1 Conversion (%): 0%
[10]; 30 min
  Condition 1 Conversion (%): 0%
[10]; 1 h
  Condition 1 Conversion (%): 5%
[10]; 4 h
  Condition 1 Conversion (%): 100%
[10]; 24 h
  Condition 1 Conversion (%): 100%
